Data published in ChEMBL document CHEMBL3046279, “Comparison of larvicidal, adulticidal and acaricidal activity of two geometrical butylidenephthalide isomers” (2006).
Activity calls are given as the source filed them. No cut-off for these calls is given here.

Legend:
Drosophila melanogaster [1] = assay: Adulticidal activity against Drosophila melanogaster […] assessed as mortality measured per adult; type: functional
Drosophila melanogaster [2] = assay: Larvicidal activity against Drosophila melanogaster larvae assessed as mortality administered through diet after 8 days; type: functional
Ctenocephalides felis = assay: Insecticidal activity against adult Ctenocephalides felis at 200 ug/cm2; type: functional, organism-based
Tyrophagus putrescentiae [3] = assay: Ratio of N,N-diethyl-m-toulamide (DEET) LC50 to compound LC50 for Tyrophagus putrescentiae; type: functional
Tyrophagus putrescentiae [4] = assay: Acaricidal activity against Tyrophagus putrescentiae assessed as mortality after 24 hr; type: functional
Tyrophagus putrescentiae [5] = assay: Acaricidal activity against Tyrophagus putrescentiae assessed as mortality at 2.5 ug/cm2 after 24 hr relative to control; type: functional
Tyrophagus putrescentiae [6] = assay: Acaricidal activity against Tyrophagus putrescentiae assessed as mortality at 5 ug/cm2 after 24 hr relative to control; type: functional
Tyrophagus putrescentiae [7] = assay: Acaricidal activity against Tyrophagus putrescentiae assessed as mortality at 10 ug/cm2 after 24 hr relative to control; type: functional
Tyrophagus putrescentiae [8] = assay: Acaricidal activity against Tyrophagus putrescentiae assessed as mortality at 20 ug/cm2 after 24 hr relative to control; type: functional
Tyrophagus putrescentiae [9] = assay: Acaricidal activity against Tyrophagus putrescentiae assessed as mortality at 50 ug/cm2 after 24 hr relative to control; type: functional
Dermatophagoides farinae [10] = assay: Ratio of N,N-diethyl-m-toulamide (DEET) LC50 to compound LC50 for Dermatophagoides farinae; type: functional
Dermatophagoides farinae [11] = assay: Acaricidal activity against Dermatophagoides farinae assessed as mortality after 24 hr relative to control; type: functional
Dermatophagoides farinae [12] = assay: Acaricidal activity against Dermatophagoides farinae assessed as mortality at 2.5 ug/cm2 after 24 hr relative to control; type: functional
Dermatophagoides farinae [13] = assay: Acaricidal activity against Dermatophagoides farinae assessed as mortality at 5 ug/cm2 after 24 hr relative to control; type: functional
Dermatophagoides farinae [14] = assay: Acaricidal activity against Dermatophagoides farinae assessed as mortality at 10 ug/cm2 after 24 hr relative to control; type: functional
Dermatophagoides farinae [15] = assay: Acaricidal activity against Dermatophagoides farinae assessed as mortality at 20 ug/cm2 after 24 hr relative to control; type: functional
Dermatophagoides farinae [16] = assay: Acaricidal activity against Dermatophagoides farinae assessed as mortality at 50 ug/cm2 after 24 hr relative to control; type: functional
Drosophila melanogaster [17] = assay: Ratio of rotenone LD50 to compound LD50 for adult Drosophila melanogaster; type: functional
Drosophila melanogaster [18] = assay: Ratio of rotenone LC50 to compound LC50 for Drosophila melanogaster larvae; type: functional
Tyrophagus putrescentiae [19] = assay: Acaricidal activity against Tyrophagus putrescentiae assessed as mortality at 30 ug/cm2 after 24 hr relative to control; type: functional
Dermatophagoides farinae [20] = assay: Acaricidal activity against Dermatophagoides farinae assessed as mortality at 30 ug/cm2 after 24 hr relative to control; type: functional
Dermatophagoides farinae [21] = assay: Acaricidal activity against Dermatophagoides farinae assessed as mortality at 40 ug/cm2 after 24 hr relative to control; type: functional
Tyrophagus putrescentiae [22] = assay: Acaricidal activity against Tyrophagus putrescentiae assessed as mortality at 100 ug/cm2 after 24 hr relative to control; type: functional

Structure (SMILES) | LD50 (Drosophila melanogaster [1]) | LC50 (Drosophila melanogaster [2]) | Activity (Ctenocephalides felis) | RatioLC50 (Tyrophagus putrescentiae [3]) | LC50 (Tyrophagus putrescentiae [4]) | mortality at 2.5 µg/cm2 (Tyrophagus putrescentiae [5]) | mortality at 10 µg/cm2 (Tyrophagus putrescentiae [7]) | mortality at 20 µg/cm2 (Tyrophagus putrescentiae [8]) | mortality at 50 µg/cm2 (Tyrophagus putrescentiae [9]) | RatioLC50 (Dermatophagoides farinae [10]) | LC50 (Dermatophagoides farinae [11]) | mortality at 2.5 µg/cm2 (Dermatophagoides farinae [12]) | mortality at 5 µg/cm2 (Dermatophagoides farinae [13]) | mortality at 10 µg/cm2 (Dermatophagoides farinae [14]) | mortality at 20 µg/cm2 (Dermatophagoides farinae [15]) | mortality at 50 µg/cm2 (Dermatophagoides farinae [16]) | Ratio (Drosophila melanogaster [17]) | RatioLC50 (Drosophila melanogaster [18]) | further results
C=C(C)[C@H]1Cc2c(ccc3c2O[C@@H]2COc4cc(OC)c(OC)cc4[C@@H]2C3=O)O1 [ROTENONE] | 3.68 µg | 20 µM |  |  |  |  |  |  |  |  |  |  |  |  |  |  |  |  | 
CCC/C=C1\OC(=O)c2ccccc21 [Z-butylidenephthalide] | 0.84 µg | 940 µM | inactive | 0.8 | 20.37 microg/cm2 | 7.8% | 22.8% | 56.3% | 74.1% | 2.25 | 5.76 microg/cm2 | 15.6% | 32.1% | 77.8% | 100% | 100% | 4.38 | 0.023 | mortality at 5 µg/cm2 (Tyrophagus putrescentiae [6]): 12.9%
CCN(CC)C(=O)c1cccc(C)c1 [DIETHYLTOLUAMIDE] |  |  |  |  | 16.28 microg/cm2 |  | 20.8% |  | 100% |  | 12.98 microg/cm2 |  |  | 33.2% | 72.2% | 100% |  |  | mortality at 30 µg/cm2 (Tyrophagus putrescentiae [19]): 81.1%; mortality at 30 µg/cm2 (Dermatophagoides farinae [20]): 100%; mortality at 40 µg/cm2 (Dermatophagoides farinae [21]): 100%; mortality at 100 µg/cm2 (Tyrophagus putrescentiae [22]): 100%
CCC/C=C1/OC(=O)c2ccccc21 [(E)-BUTYLIDENEPHTHALIDE] | 0.94 µg | 2070 µM | inactive | 0.64 | 25.56 microg/cm2 | 12.3% | 33% | 52.9% | 57.2% | 2.78 | 4.67 microg/cm2 | 12.2% | 51.6% | 94.7% | 100% | 100% | 3.91 | 0.01 | 
